According to ChEMBL document CHEMBL4627327, “Antibacterial activity of singly and doubly modified salinomycin derivatives” (Bioorg Med Chem Lett, 2020):
≈ marks a conversion by molar mass, not a printed value. Calls of active or inactive are those of the source. The calls are words filed in the database; no cut-off is given here.

Tests used:
Staphylococcus aureus [1] = assay: Antibacterial activity against Staphylococcus aureus ATCC 25923 assessed as bacterial growth inhibition measured after 18 hrs by CLSI protocol based two-fold serial microdilution method; assay type: functional; settings: for MIC: ATCC 25923, 18 h
[2] = Genotoxicity in rec-positive Bacillus subtilis H17 assessed as diameter of inhibition zone at 256 ug measured after 24 hrs by rec-assay; assay type: toxicity; settings: in vivo
Staphylococcus aureus [3] = assay: Antibacterial activity against methicillin-resistant Staphylococcus aureus isolate 584 assessed as bacterial growth inhibition measured after 18 hrs by CLSI protocol based two-fold serial microdilution method; assay type: functional; settings: isolate 584, 18 h
[4] = system: Staphylococcus epidermidis; assay: Antibacterial activity against methicillin-resistant Staphylococcus epidermidis isolate 609 assessed as bacterial growth inhibition measured after 18 hrs by CLSI protocol based two-fold serial microdilution method; assay type: functional; settings: isolate 609, 18 h
Staphylococcus aureus [5] = assay: Antibacterial activity against methicillin-resistant Staphylococcus aureus isolate 612 assessed as bacterial growth inhibition measured after 18 hrs by CLSI protocol based two-fold serial microdilution method; assay type: functional; settings: isolate 612, 18 h
Escherichia coli [6] = assay: Antibacterial activity against Escherichia coli ATCC 25922 assessed as bacterial growth inhibition measured after 18 hrs by CLSI protocol based two-fold serial microdilution method; assay type: functional, organism-based
Staphylococcus aureus [7] = assay: Antibacterial activity against Staphylococcus aureus NCTC 4163 assessed as bacterial growth inhibition measured after 18 hrs by CLSI protocol based two-fold serial microdilution method; assay type: functional; settings: for MIC: NCTC 4163, 18 h
[8] = system: Staphylococcus epidermidis; assay: Antibacterial activity against methicillin-resistant Staphylococcus epidermidis isolate 603 assessed as bacterial growth inhibition measured after 18 hrs by CLSI protocol based two-fold serial microdilution method; assay type: functional; settings: isolate 603, 18 h
Escherichia coli [9] = assay: Antibacterial activity against Escherichia coli NCTC 8196 assessed as bacterial growth inhibition measured after 18 hrs by CLSI protocol based two-fold serial microdilution method; assay type: functional, organism-based
Staphylococcus aureus [10] = assay: Antibacterial activity against methicillin-resistant Staphylococcus aureus isolate 583 assessed as bacterial growth inhibition measured after 18 hrs by CLSI protocol based two-fold serial microdilution method; assay type: functional; settings: isolate 583, 18 h
Pseudomonas aeruginosa [11] = assay: Antibacterial activity against Pseudomonas aeruginosa ATCC 27853 assessed as bacterial growth inhibition measured after 18 hrs by CLSI protocol based two-fold serial microdilution method; assay type: functional, organism-based
Enterococcus hirae = assay: Antibacterial activity against Enterococcus hirae ATCC 10541 assessed as bacterial growth inhibition measured after 18 hrs by CLSI protocol based two-fold serial microdilution method; assay type: functional; settings: for MIC: ATCC 10541, 18 h
[12] = system: Staphylococcus epidermidis; assay: Antibacterial activity against methicillin-resistant Staphylococcus epidermidis isolate 654 assessed as bacterial growth inhibition measured after 18 hrs by CLSI protocol based two-fold serial microdilution method; assay type: functional; settings: isolate 654, 18 h
Micrococcus luteus = assay: Antibacterial activity against Micrococcus luteus ATCC 9341 assessed as bacterial growth inhibition measured after 18 hrs by CLSI protocol based two-fold serial microdilution method; assay type: functional; settings: for MIC: ATCC 9341, 18 h
[13] = system: Staphylococcus epidermidis; assay: Antibacterial activity against methicillin-resistant Staphylococcus epidermidis isolate 602 assessed as bacterial growth inhibition measured after 18 hrs by CLSI protocol based two-fold serial microdilution method; assay type: functional; settings: isolate 602, 18 h
[14] = system: Staphylococcus epidermidis; assay: Antibacterial activity against methicillin-resistant Staphylococcus epidermidis isolate 574 assessed as bacterial growth inhibition measured after 18 hrs by CLSI protocol based two-fold serial microdilution method; assay type: functional; settings: isolate 574, 18 h
Staphylococcus aureus [15] = assay: Antibacterial activity against methicillin-resistant Staphylococcus aureus isolate 770 assessed as bacterial growth inhibition measured after 18 hrs by CLSI protocol based two-fold serial microdilution method; assay type: functional; settings: isolate 770, 18 h
[16] = system: Staphylococcus epidermidis; assay: Antibacterial activity against methicillin-resistant Staphylococcus epidermidis isolate 610 assessed as bacterial growth inhibition measured after 18 hrs by CLSI protocol based two-fold serial microdilution method; assay type: functional; settings: isolate 610, 18 h
[17] = Genotoxicity in rec negative Bacillus subtilis M45 assessed as diameter of inhibition zone at 256 ug measured after 24 hrs by rec-assay; assay type: toxicity; settings: in vivo
Staphylococcus aureus [18] = assay: Antibacterial activity against Staphylococcus aureus ATCC 6358 assessed as bacterial growth inhibition measured after 18 hrs by CLSI protocol based two-fold serial microdilution method; assay type: functional; settings: for MIC: ATCC 6358, 18 h
[19] = system: Staphylococcus epidermidis; assay: Antibacterial activity against Staphylococcus epidermidis ATCC 12228 assessed as bacterial growth inhibition measured after 18 hrs by CLSI protocol based two-fold serial microdilution method; assay type: functional; settings: for MIC: ATCC 12228, 18 h
Staphylococcus aureus [20] = assay: Antibacterial activity against Staphylococcus aureus ATCC 29213 assessed as bacterial growth inhibition measured after 18 hrs by CLSI protocol based two-fold serial microdilution method; assay type: functional; settings: for MIC: ATCC 29213, 18 h
[21] = system: Staphylococcus epidermidis; assay: Inhibition of biofilm formation in Staphylococcus epidermidis ATCC 35984 at 1 to 8 ug/ml measured after 24 hrs by crystal violet staining based assay; assay type: functional, organism-based
[22] = system: Staphylococcus epidermidis; assay: Antibacterial activity against methicillin-resistant Staphylococcus epidermidis isolate 660 assessed as bacterial growth inhibition measured after 18 hrs by CLSI protocol based two-fold serial microdilution method; assay type: functional; settings: isolate 660, 18 h
[23] = system: Staphylococcus epidermidis; assay: Inhibition of biofilm formation in Staphylococcus epidermidis ATCC 12228 at 1 to 8 ug/ml measured after 24 hrs by crystal violet staining based assay; assay type: functional, organism-based
Pseudomonas aeruginosa [24] = assay: Antibacterial activity against Pseudomonas aeruginosa ATCC 15442 assessed as bacterial growth inhibition measured after 18 hrs by CLSI protocol based two-fold serial microdilution method; assay type: functional, organism-based
Staphylococcus aureus [25] = assay: Antibacterial activity against methicillin-resistant Staphylococcus aureus isolate 621 assessed as bacterial growth inhibition measured after 18 hrs by CLSI protocol based two-fold serial microdilution method; assay type: functional; settings: isolate 621, 18 h
[26] = system: Staphylococcus epidermidis; assay: Antibacterial activity against Staphylococcus epidermidis ATCC 35984 assessed as bacterial growth inhibition measured after 18 hrs by CLSI protocol based two-fold serial microdilution method; assay type: functional; settings: for MIC: ATCC 35984, 18 h
Staphylococcus aureus [27] = assay: Antibacterial activity against methicillin-resistant Staphylococcus aureus isolate 620 assessed as bacterial growth inhibition measured after 18 hrs by CLSI protocol based two-fold serial microdilution method; assay type: functional; settings: isolate 620, 18 h
Staphylococcus aureus [28] = assay: Antibacterial activity against methicillin-resistant Staphylococcus aureus isolate 750 assessed as bacterial growth inhibition measured after 18 hrs by CLSI protocol based two-fold serial microdilution method; assay type: functional; settings: isolate 750, 18 h

SMILES	diameter of the inhibition zone (DIZ) [2] [mm]	MIC (Staphylococcus aureus [3]) [µM]	MIC [4] [µM]	MIC (Staphylococcus aureus [5]) [µM]	Activity (Escherichia coli [6])	MIC [8] [µM]	Activity (Escherichia coli [9])	MIC (Staphylococcus aureus [10]) [µM]	Activity (Pseudomonas aeruginosa [11])	MIC [12] [µM]	MIC [13] [µM]	MIC [14] [µM]	MIC (Staphylococcus aureus [15]) [µM]	MIC [16] [µM]	diameter of the inhibition zone (DIZ) [17] [mm]	inhibition [21]	MIC [22] [µM]	inhibition [23]	Activity (Pseudomonas aeruginosa [24])	MIC (Staphylococcus aureus [25]) [µM]	other results
CC[C@@H](C(=O)[C@@H](C)[C@@H](O)[C@H](C)[C@@H]1O[C@@H]([C@@H](CC)C(=O)ONC(=O)c2ccccc2)CC[C@@H]1C)[C@H]1O[C@]2(C=CC(=O)[C@]3(CC[C@@](C)([C@H]4CC[C@](O)(CC)[C@H](C)O4)O3)O2)[C@H](C)C[C@@H]1C	20	36.9 (≈ 32 µg/mL)	9.22 (≈ 8 µg/mL)	18.4 (≈ 16 µg/mL)	inactive	4.61 (≈ 4 µg/mL)	inactive	36.9 (≈ 32 µg/mL)	inactive	73.7 (≈ 64 µg/mL)	4.61 (≈ 4 µg/mL)	2.3 (≈ 2 µg/mL)	73.7 (≈ 64 µg/mL)	18.4 (≈ 16 µg/mL)	23	Active	73.7 (≈ 64 µg/mL)	Active	inactive	4.61 (≈ 4 µg/mL)	Activity (Staphylococcus aureus [1]): Active; Activity (Staphylococcus aureus [7]): Active; Activity (Enterococcus hirae): Active; Activity (Micrococcus luteus): Active; Activity (Staphylococcus aureus [18]): Active; Activity [19]: Active; Activity (Staphylococcus aureus [20]): Active; Activity [26]: Active; MIC (Staphylococcus aureus [27]): 18.4 µM (≈ 16 µg/mL); MIC (Staphylococcus aureus [28]): 18.4 µM (≈ 16 µg/mL)
CC[C@@H](C(=O)[C@@H](C)[C@@H](O)[C@H](C)[C@@H]1O[C@@H]([C@@H](CC)C(=O)ONC(=O)c2ccccc2)CC[C@@H]1C)[C@H]1O[C@]2(C=C[C@@H](O)[C@]3(CC[C@@](C)([C@H]4CC[C@](O)(CC)[C@H](C)O4)O3)O2)[C@H](C)C[C@@H]1C	25	18.4 (≈ 16 µg/mL)	4.6 (≈ 4 µg/mL)	4.6 (≈ 4 µg/mL)	inactive	4.6 (≈ 4 µg/mL)	inactive	18.4 (≈ 16 µg/mL)	inactive	18.4 (≈ 16 µg/mL)	4.6 (≈ 4 µg/mL)	2.3 (≈ 2 µg/mL)	9.19 (≈ 8 µg/mL)	4.6 (≈ 4 µg/mL)	32	Active	18.4 (≈ 16 µg/mL)	Active	inactive	2.3 (≈ 2 µg/mL)	MIC (Staphylococcus aureus [1]): 1 to 16 µg/mL (≈ 1.15 to 18.4 µM); MIC (Staphylococcus aureus [7]): 1 to 16 µg/mL (≈ 1.15 to 18.4 µM); MIC (Enterococcus hirae): 1 to 16 µg/mL (≈ 1.15 to 18.4 µM); MIC (Micrococcus luteus): 1 to 16 µg/mL (≈ 1.15 to 18.4 µM); MIC (Staphylococcus aureus [18]): 1 to 16 µg/mL (≈ 1.15 to 18.4 µM); MIC [19]: 1 to 16 µg/mL (≈ 1.15 to 18.4 µM); MIC (Staphylococcus aureus [20]): 1 to 16 µg/mL (≈ 1.15 to 18.4 µM); MIC [26]: 1 to 16 µg/mL (≈ 1.15 to 18.4 µM); MIC (Staphylococcus aureus [27]): 4.6 µM (≈ 4 µg/mL); MIC (Staphylococcus aureus [28]): 4.6 µM (≈ 4 µg/mL)
CC[C@@H](C(=O)[C@@H](C)[C@@H](O)[C@H](C)[C@@H]1O[C@@H]([C@@H](CC)C(=O)ONC(=O)c2ccccc2O)CC[C@@H]1C)[C@H]1O[C@]2(C=C[C@@H](O)[C@]3(CC[C@@](C)([C@H]4CC[C@](O)(CC)[C@H](C)O4)O3)O2)[C@H](C)C[C@@H]1C	24	4.51 (≈ 4 µg/mL)	2.26 (≈ 2 µg/mL)	2.26 (≈ 2 µg/mL)	inactive	2.26 (≈ 2 µg/mL)	inactive	2.26 (≈ 2 µg/mL)	inactive	4.51 (≈ 4 µg/mL)	2.26 (≈ 2 µg/mL)	1.13 (≈ 1 µg/mL)	4.51 (≈ 4 µg/mL)	2.26 (≈ 2 µg/mL)	30	Active	4.51 (≈ 4 µg/mL)	Active	inactive	2.26 (≈ 2 µg/mL)	MIC (Staphylococcus aureus [1]): 1 to 16 µg/mL (≈ 1.13 to 18.1 µM); MIC (Staphylococcus aureus [7]): 1 to 16 µg/mL (≈ 1.13 to 18.1 µM); MIC (Enterococcus hirae): 1 to 16 µg/mL (≈ 1.13 to 18.1 µM); MIC (Micrococcus luteus): 1 to 16 µg/mL (≈ 1.13 to 18.1 µM); MIC (Staphylococcus aureus [18]): 1 to 16 µg/mL (≈ 1.13 to 18.1 µM); MIC [19]: 1 to 16 µg/mL (≈ 1.13 to 18.1 µM); MIC (Staphylococcus aureus [20]): 1 to 16 µg/mL (≈ 1.13 to 18.1 µM); MIC [26]: 1 to 16 µg/mL (≈ 1.13 to 18.1 µM); MIC (Staphylococcus aureus [27]): 2.26 µM (≈ 2 µg/mL); MIC (Staphylococcus aureus [28]): 2.26 µM (≈ 2 µg/mL)
CC[C@@H](C(=O)[C@@H](C)[C@@H](O)[C@H](C)[C@@H]1O[C@@H]([C@@H](CC)C(=O)ONC(=O)c2ccccc2O)CC[C@@H]1C)[C@H]1O[C@]2(C=CC(=O)[C@]3(CC[C@@](C)([C@H]4CC[C@](O)(CC)[C@H](C)O4)O3)O2)[C@H](C)C[C@@H]1C	17	72.4 (≈ 64 µg/mL)	2.26 (≈ 2 µg/mL)	4.52 (≈ 4 µg/mL)	inactive	2.26 (≈ 2 µg/mL)	inactive	36.2 (≈ 32 µg/mL)	inactive	72.4 (≈ 64 µg/mL)	4.52 (≈ 4 µg/mL)	2.26 (≈ 2 µg/mL)	72.4 (≈ 64 µg/mL)	4.52 (≈ 4 µg/mL)	19	Active	72.4 (≈ 64 µg/mL)	Active	inactive	4.52 (≈ 4 µg/mL)	Activity (Staphylococcus aureus [1]): Active; Activity (Staphylococcus aureus [7]): Active; Activity (Enterococcus hirae): Active; Activity (Micrococcus luteus): Active; Activity (Staphylococcus aureus [18]): Active; Activity [19]: Active; Activity (Staphylococcus aureus [20]): Active; Activity [26]: Active; MIC (Staphylococcus aureus [27]): 4.52 µM (≈ 4 µg/mL); MIC (Staphylococcus aureus [28]): 4.52 µM (≈ 4 µg/mL)
